Consider two molecules from patent publication US20250297310A1, “HEMATOPOIETIC LOSS OF Y CHROMOSOME LEADS TO CARDIAC FIBROSIS AND DYSFUNCTION AND IS ASSOCIATED WITH DEATH DUE TO HEART FAILURE” (University of Virginia Patent Foundation, priority 2022, published 2025).

Data set [1] is described as follows: Effect of senolytic ABT-263 on lifespan and kidney function in aging hematopoietic Uty-KO mice. The class given is in vivo. The text has this:
FIGS. 28A-28C. The effect of the senolytic ABT-263 on lifespan and kidney function in aging hematopoietic Uty-KO mice. FIG. 28A. Exemplary model of ABT-263 mice. FIGS. 28B and 28C.
FIGS. 28A-28C show the effect of the senolytic ABT-263 on lifespan and kidney function in aging hematopoietic Uty-KO mice, using an exemplary model of ABT-263 mice.

The subject of data set [2] is centromere of the Y chromosome. As to the kind of experiment: Y chromosome ablation efficiency by FISH analysis of tRFP-positive blood cells. The class given is cell-based. The settings on record: tRFP-positive blood cells from reconstituted mice. An excerpt:
Plasmids. Single guide RNAs (sgRNA) targeting the centromere of the Y chromosome (gRNA1, gRNA2) were from a previous report (Adikusuma et al., 2017), and the control gRNA is non-targeting. sgRNA sequences are listed in Table 4. Single stranded sgRNA sequences were annealed and cloned into pLKO.sgRNA.EFS.tRFP following restriction digestion with Esp3I, and successful cloning was confirmed by Sanger sequencing with U6 primer (Table 4). Plasmids were from Addgene (pLKO5.0.sgRNA.EFS.tRFP, plasmid #57823; psPAX2; plasmid #12260; and pMD2.G, plasmid #12259).
Ex vivo genome editing of HSPC. sgRNAs were delivered lentivirally to bone marrow lineage-negative cells obtained from ROSA26Cas9 knock-in mice as described previously (Sano et al., 2019).
Fluorescence in situ hybridization (FISH). […] 200 interphase nuclei were analyzed by two technologists using an Olympus fluorescence microscope (model BX-41).
We constructed a mouse model of hematopoietic mLOY by employing CRISPR/Cas9 gene editing to target repeat DNA sequences that are specific to the centromere of the Y chromosome. […] Two LOY-gRNAs (LOY-gRNA1 and 2) targeting different repeat sequences within the centromere were evaluated for the efficiency of Y chromosome ablation by fluorescent in situ hybridization (FISH) analysis of X and Y chromosome in tRFP-positive blood cells collected from mice reconstituted with bone marrow cells. […]

Turning to `CC1(C)CCC(c2ccc(Cl)cc2)=C(CN2CCN(c3ccc(C(=O)NS(=O)(=O)c4ccc(N[C@H](CCN5CCOCC5)CSc5ccccc5)c(S(=O)(=O)C(F)(F)F)c4)cc3)CC2)C1` [ABT-263], in data set [1], the “progression of renal dysfunction” value is reported as “suppressed the progression of renal dysfunction” and the survival result is reported as “promoted survival”.

On to “LOY-gRNA1: guide RNA targeting a repeat sequence in the centromere of the Y chromosome, SEQ ID NOs: 1-2 (guide 1 CACCGGAGUUAAUAUAAAAAACA; guide 2 AAACUGUUUUUUAUAUUAACUCC; listed as RNA, chemistry not fully specified)”, for which the “Y chromosome ablation efficiency” value in data set [2] was “approximately 95%”.
